What was measured:
Assay type in all cases: in vivo
[1] = system: barley (winter barley, Hordeum vulgare); test: Test C postemergence: barley
Excerpt: (§1) At the same time, plants selected from these crop and weed species and also barley (winter barley, Hordeum vulgare), canarygrass (Phalaris minor), chickweed (common chickweed, Stellaria media) windgrass (Apera spica-venti) and deadnettle (henbit deadnettle, Lamium amplexicaule) were planted in pots containing Redi-Earth® planting medium (Scotts Company, 14111 Scottslawn Road, Marysville, Ohio 43041) comprising spaghnum peat moss, vermiculite, wetting agent and starter nutrients and treated with postemergence applications of test chemicals formulated in the same manner. Plants ranged in height from 2 to 18 cm (1- to 4-leaf stage) for postemergence treatments.
(§2) Treated plants and controls were maintained in a greenhouse for 13 to 15 days, after which time all species were compared to controls and visually evaluated. Plant response ratings, summarized in Table C, are based on a scale of 0 to 100 where 0 is no effect and 100 is complete control. A dash (-) response means no test result.

[2] = system: wheat, spring (spring wheat, Triticum aestivum); test: Test D pre-/postemergence: wheat, spring
Excerpt: (§3) Seeds of plant species selected from bluegrass (annual bluegrass, Poa annua), blackgrass (Alopecurus myosuroides), canarygrass (Phalaris minor), chickweed (common chickweed, Stellaria media), galium (catchweed bedstraw, Galium aparine), bromegrass, downy (downy bromegrass, Bromus tectorum), field poppy (Papaver rhoeas), field violet (Viola arvensis), foxtail, green (green foxtail, Setaria viridis), deadnettle (henbit deadnettle, Lamium amplexicaule), ryegrass, Italian (Italian ryegrass, Lolium multiflorum), kochia (Kochia scoparia), lambsquarters (Chenopodium album), oilseed rape (Brassica napus), pigweed (Amaranthus retroflexus), Russian thistle (Salsola iberica), chamomile (scentless chamomile, Matricaria inodora), speedwell (bird's-eye speedwell, Veronica persica), barley, spring (spring barley, Hordeum vulgare), wheat, spring (spring wheat, Triticum aestivum), buckwheat, wild (wild buckwheat, Polygonum convolvulus), mustard, wild (wild mustard, Sinapis arvensis), oat, wild (wild oat, Avena fatua), radish, wild (wild radish, Raphanus raphanistrum), windgrass (Apera spica-venti), barley, winter (winter barley, Hordeum vulgare), and wheat, winter (winter wheat, Triticum aestivum) were planted into a silt loam soil and treated preemergence with test chemicals formulated in a non-phytotoxic solvent mixture which included a surfactant. At the same time, these same crop and weed species were planted in pots containing the planting medium comprising spaghnum peat moss, vermiculite, wetting agent and starter nutrients and treated with postemergence applications of the test chemicals formulated in the same manner. Plants ranged in height from 2 to 18 cm (1- to 4-leaf stage).
as §2, with “controlled growth environment” for “greenhouse”, “14” for “13”, “21 days” for “15 days,”, “D,” for “C,”

[3] = system: blackgrass (Alopecurus myosuroides); test: Test D pre-/postemergence: blackgrass
Excerpt: as §3
as §2, with “controlled growth environment” for “greenhouse”, “14” for “13”, “21 days” for “15 days,”, “D,” for “C,”

[4] = system: cocklebur (common cocklebur, Xanthium strumarium); test: Test C pre-/postemergence: cocklebur
Excerpt: Seeds of plant species selected from blackgrass (Alopecurus myosuroides), bromegrass, downy (downy bromegrass, Bromus tectorum), foxtail, green (green foxtail, Setaria viridis), ryegrass, Italian (Italian ryegrass, Lolium multiflorum), winter wheat (Triticum aestivum), wild oat (Avena fatua), galium (catchweed bedstraw, Galium aparine), bermudagrass (Cynodon dactylon), surinam grass (Brachiaria decumbens), cocklebur (common cocklebur, Xanthium strumarium), corn (Zea mays), large crabgrass (Digitaria sanguinalis), woolly cupgrass (Eriochloa villosa), foxtail, giant (giant foxtail, Setaria faberii), goosegrass (Eleusine indica), johnsongrass (Sorghum halepense), kochia (Kochia scoparia), lambsquarters (Chenopodium album), morningglory (Ipomoea coccinea), nightshade (eastern black nightshade, Solanum ptycanthum), nutsedge, yellow (yellow nutsedge, Cyperus esculentus), pigweed (Amaranthus retroflexus), ragweed (common ragweed, Ambrosia elation), soybean (Glycine max), common (oilseed) sunflower (Helianthus annuus), Russian thistle (Salsola kali) and velvetleaf (Abutilon theophrasti) were planted into a blend of loam soil and sand and treated preemergence with test chemicals formulated in a non-phytotoxic solvent mixture which included a surfactant.
as §1, §2

[5] = 31 g ai/ha, scale 0 to 100 (0 no effect, 100 complete control)
[6] = 62 g ai/ha, scale 0 to 100 (0 no effect, 100 complete control)
[7] = 125 g ai/ha, scale 0 to 100, 0 no effect, 100 complete control
[8] = Postemergence, 31 g ai/ha, scale 0 to 100 (0 no effect, 100 complete control)
[9] = Postemergence, 62 g ai/ha, scale 0 to 100 (0 no effect, 100 complete control)
[10] = Postemergence, 125 g ai/ha, scale 0 to 100, 0 no effect, 100 complete control
[11] = Postemergence, 250 g ai/ha, scale 0 to 100 (0 no effect, 100 complete control)
[12] = Postemergence, 16 g ai/ha, scale 0 to 100
[13] = Preemergence, 31 g ai/ha, scale 0 to 100, 0 no effect, 100 complete control
[14] = Preemergence, 62 g ai/ha, scale 0 to 100
[15] = Preemergence, 125 g ai/ha, scale 0 to 100
[16] = Preemergence, 250 g ai/ha, scale 0 to 100
[17] = Postemergence, 250 g ai/ha, scale 0 to 100
[18] = Preemergence, 16 g ai/ha, scale 0 to 100, 0 no effect, 100 complete control
[19] = Preemergence, 31 g ai/ha, scale of 0 to 100, 0 is no effect, 100 is complete control
[20] = Preemergence, 250 g ai/ha, scale 0 to 100, 0 no effect, 100 complete control

| SMILES | Plant response rating, Barley [1, 5] | Plant response rating, Barley [1, 6] | Plant response rating, Barley [1, 7] | Plant response rating, Barley ([1]; 250 g ai/ha, scale 0 to 100) | Plant response rating: Wheat, Spring [2, 8] | Plant response rating: Wheat, Spring [2, 9] | Plant response rating: Wheat, Spring [2, 10] | Plant response rating: Wheat, Spring [2, 11] | Plant response rating, Wheat, Spring [2, 12] | Plant response rating, Wheat, Spring [2, 13] | Plant response rating, Wheat, Spring [2, 14] | Plant response rating: Blackgrass [3, 8] | Plant response rating: Blackgrass [3, 9] | Plant response rating: Blackgrass [3, 10] | Plant response rating: Blackgrass [3, 11] | Plant response rating, Blackgrass [3, 12] | Plant response rating, Cocklebur [4, 8] | Plant response rating, Cocklebur [4, 9] | Plant response rating, Cocklebur [4, 10] | Plant response rating, Cocklebur [4, 17] | further results |
| --- | --- | --- | --- | --- | --- | --- | --- | --- | --- | --- | --- | --- | --- | --- | --- | --- | --- | --- | --- | --- | --- |
| Cc1nn(-c2ccc(C(F)(F)F)cn2)nc1Cc1cccc(C(F)(F)F)c1 [Compound 106] | 15 | 25 | 35 | 40 | 5 | 5 | 10 | 20 | 0 | 0 | 0 | 10 | 10 | 20 | 30 | 5 | 35 | 35 | 40 | 55 | Plant response rating, Wheat, Spring [2, 15]: 0; Plant response rating, Wheat, Spring [2, 16]: 0; Plant response rating, Blackgrass [3, 13]: 0; Plant response rating, Blackgrass [3, 14]: 0; Plant response rating, Blackgrass [3, 15]: 0; Plant response rating, Blackgrass [3, 16]: 0 |
| Cc1nn(-c2ccc(C(F)(F)F)cc2)nc1Oc1ccnc(C(F)(F)F)c1 [Compound 120] | 20 | 30 | 40 | 55 | 10 | 10 | 20 | 25 | 10 | 0 | 5 | 10 | 30 | 75 | 85 | 5 | 45 | 50 | 65 | 65 | Plant response rating, Wheat, Spring [2, 18]: 0; Plant response rating, Wheat, Spring [2, 15]: 10; Plant response rating, Wheat, Spring [2, 16]: 20; Plant response rating, Blackgrass [3, 18]: 0; Plant response rating, Blackgrass [3, 13]: 80; Plant response rating, Blackgrass [3, 14]: 98; Plant response rating, Blackgrass [3, 15]: 100; Plant response rating, Blackgrass [3, 16]: 100; Plant response rating, Cocklebur [4, 19]: 0; Plant response rating, Cocklebur ([4]; Preemergence, 62 g ai/ha, scale 0 to 100, 0 no effect, 100 complete control): 0; Plant response rating, Cocklebur [4, 20]: 5 |
| COc1nn(-c2ccc(C(F)(F)F)cc2)nc1Cc1ccnc(C(F)F)c1 [Compound 138] | 10 | 30 | 35 | 60 | 5 | 10 | 25 | 35 | 5 | – | – | 50 | 70 | 80 | 85 | 30 | 65 | 70 | 85 | 85 | Plant response rating, Cocklebur [4, 19]: 5; Plant response rating, Cocklebur ([4]; Preemergence, 62 g ai/ha, scale of 0 to 100, 0 is no effect, 100 is complete control): 5; Plant response rating, Cocklebur ([4]; Preemergence, 125 g ai/ha, scale 0 to 100, 0 no effect, 100 complete control): 15; Plant response rating, Cocklebur [4, 20]: 15 |

Reference: US9302999B2, “Substituted triazoles as herbicides” (E. I. DU PONT DE NEMOURS AND COMPANY, priority 2012, dated 2016)
